Results as given in article PMC10778198, “First-in-Human Dose-Escalation Study of the Novel Oral Depsipeptide Class I-Targeting HDAC Inhibitor Bocodepsin (OKI-179) in Patients with Advanced Solid Tumors” (Cancers, 2023).

Columns and labels:
[1] = test system: murine (syngeneic) and human cancer cell line xenograft models; set-up: method as in PMID 34965958, PMID 31235619; conditions: single agent; colorectal cancer, triple-negative breast cancer, diffuse large B-cell lymphoma models; cited from earlier work
[2] = test system: histone acetylation (Ac-H3K27) in circulating T cells; experiment: histone acetylation in circulating T cells (PBMC flow cytometry); format: in vivo, human
Experimental: Blood samples for acetylated (Ac)-H3K27, Ac-H3K9, and Ac-lysine levels in peripheral blood mononuclear cells (PBMCs) were collected in cycle 1. Samples were collected immediately prior to dosing and at 2, 8, and 24 h post-dosing on days 1 and 15. Blood samples were processed within 3 h of collection, and isolated PBMCs were washed and resuspended in cell cell-freezing medium. Cells were stored at ≤−70 °C prior to shipment to the University of Texas at Austin Dell Medical School (UTDMS) for analysis. Briefly, patient PBMCs were thawed at 37 °C for 5 min, washed with flow wash buffer containing PBS/2% FBS/5 mM EDTA, and stained for 30 min on ice with the following: fixable viability dye (BioLegend 423106; Zombie NIR^TM, San Diego, CA, USA), CD3 (Biolegend; Clone OKT3), CD4 (BioLegend; Clone SK3), and CD8 (Biolegend; Clone RPA-T8). All samples were washed twice before being fixed and permeabilized using a BD Biosciences (Hunt Valley, MD, USA) Cytofix/Cytoperm™ kit (RRID: AB_2869008) according to the manufacturer’s protocol and stained for 30 min for intracellular acetylation markers: Ac-H3K27 (Cell Signaling Technology; Clone D5E4), Ac-H3K9 (Cell Signaling Technology, Danvers, MA, USA; Clone CFB11), and total Ac-lysine (BioLegend; Clone 15G10). All cells were analyzed on a Cytek Aurora (5 L 16UV-16V-14B-10YG-8R). Spectral unmixing was performed based on fluorophore-specific single-color cells and compensation bead (ThermoFisher 01-2222-41, Waltham, MA, USA) controls using SpectroFlo© software (v3). All post-acquisition analyses were performed using FlowJo software (v10.3). Results are shown as fold-changes from pre-dose values for each patient and day.
Descriptive statistics were used for baseline characteristics, safety assessments, pharmacokinetic variables, exploratory assessments, and efficacy analysis, including the duration of response and time to progression. Tables were used to summarize the data across the cohort of patients and various dosing groups. Geometric means were used to calculate plasma concentration-time profiles. […]

[3] = test system: metastatic NRAS-mutated melanoma; set-up: method as in earlier work; conditions: combination with binimetinib, phase 2 data, previously treated with immunotherapy; cited from earlier work

CC(C)[C@H](N)C(=O)SCC/C=C/[C@@H]1CC(=O)NCc2nc(cs2)C(=O)NC(C)(C)C(=O)N[C@@H](C(C)C)C(=O)O1 [OKI-179, Bocodepsin]
antitumor activity [1]: significant antitumor activity | increase in histone acetylation ([2]; 300 mg doses, 2 h after dosing, days 1 and 15, T cells): 6 fold | increase in H3K27 acetylation in CD4 T cells ([2]; doses >200 mg): greater than 6 fold | increase in H3K27 acetylation in circulating T cells ([2]; doses of 200 mg or greater): > 6 fold | overall response rate (ORR) [3]: 38%
